The term IC50 denotes the concentration needed to halve the response being measured. A lower IC50 goes with greater potency in that assay. Broadly, the melting point is the temperature of the solid-liquid transition.

We go through 11 compounds from publication PMC8118430, “Utility of novel 2-furanones in synthesis of other heterocyclic compounds having anti-inflammatory activity with dual COX2/LOX inhibition” (Journal of Enzyme Inhibition and Medicinal Chemistry, 2021).

The target in one data set is T1, 15-LOX (Glycine max, UniProt P08170).
T1 construct: purchased Cayman Chemical 760700
T1 sequence (P08170 1-839): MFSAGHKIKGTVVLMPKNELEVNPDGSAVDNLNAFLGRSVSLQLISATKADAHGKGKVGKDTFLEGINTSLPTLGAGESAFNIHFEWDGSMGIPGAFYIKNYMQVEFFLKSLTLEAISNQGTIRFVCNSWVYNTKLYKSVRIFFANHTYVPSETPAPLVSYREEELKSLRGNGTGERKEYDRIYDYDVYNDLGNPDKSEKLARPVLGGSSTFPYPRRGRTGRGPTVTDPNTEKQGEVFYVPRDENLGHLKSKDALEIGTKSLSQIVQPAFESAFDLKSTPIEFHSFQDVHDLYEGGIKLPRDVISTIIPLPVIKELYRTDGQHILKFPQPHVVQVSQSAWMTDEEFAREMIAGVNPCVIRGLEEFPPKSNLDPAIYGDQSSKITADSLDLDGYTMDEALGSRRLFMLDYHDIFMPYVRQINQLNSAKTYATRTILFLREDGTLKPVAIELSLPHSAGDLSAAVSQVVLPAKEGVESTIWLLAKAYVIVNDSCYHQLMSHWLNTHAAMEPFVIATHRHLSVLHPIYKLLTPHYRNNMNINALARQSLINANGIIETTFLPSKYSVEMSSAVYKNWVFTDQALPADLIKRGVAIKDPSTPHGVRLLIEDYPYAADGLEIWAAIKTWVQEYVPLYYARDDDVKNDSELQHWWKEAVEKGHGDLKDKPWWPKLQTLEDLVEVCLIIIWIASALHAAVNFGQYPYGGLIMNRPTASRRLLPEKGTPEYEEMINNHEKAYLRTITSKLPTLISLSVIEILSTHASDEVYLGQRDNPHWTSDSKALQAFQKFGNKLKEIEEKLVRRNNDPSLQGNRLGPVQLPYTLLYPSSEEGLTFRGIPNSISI
As to the kind of experiment: Lipoxygenase (15-LOX) inhibition assay (Cayman LOX inhibitor screening kit). To be noted: mean ± SD of three experiments. Format: biochemical, soybean. The protocol:
Briefly, in a 96-well plate, 10 µl of each test compound (dissolved in DMSO) or vehicle were pre-incubated with 90 µl of 15-LOX enzyme. The reaction was started by addition of 10 µl of substrate (AA) and the plate was shaken for at least 5 min. Then, 100 µl of chromogen supplied with the kit was added to each well to stop the enzymatic reaction and develop the colour. The absorbance was measured at 490 nm using microplate reader.
Therefore, the soybean LOX is most like the mammalian 15-LOX[59].

The next data set concerns the target T2, TNF-α (Homo sapiens, UniProt P01375).
T2 construct: purchased BPS Bioscience 79756
As to the kind of experiment: TNFR2: TNF-α [biotinylated] inhibitor screening assay. As to conditions: for IC50: mean ± SD of three experiments. The data set is classed as binding. The protocol:
The assay was performed in triplicates using TNFR2: TNF-α [biotinylated] […] First, TNFR2 is coated on a 96-well plate. Next, biotinylated TNF-α is incubated with TNFR2 on the plate. Finally, the plate was treated with streptavidin-HRP followed by addition of an HRP substrate to produce chemiluminescence, which can be measured using a chemiluminescence reader.

The next data set has as its target T3, COX-1 (Ovis aries, UniProt P05979).
T3 sequence (P05979 25-600): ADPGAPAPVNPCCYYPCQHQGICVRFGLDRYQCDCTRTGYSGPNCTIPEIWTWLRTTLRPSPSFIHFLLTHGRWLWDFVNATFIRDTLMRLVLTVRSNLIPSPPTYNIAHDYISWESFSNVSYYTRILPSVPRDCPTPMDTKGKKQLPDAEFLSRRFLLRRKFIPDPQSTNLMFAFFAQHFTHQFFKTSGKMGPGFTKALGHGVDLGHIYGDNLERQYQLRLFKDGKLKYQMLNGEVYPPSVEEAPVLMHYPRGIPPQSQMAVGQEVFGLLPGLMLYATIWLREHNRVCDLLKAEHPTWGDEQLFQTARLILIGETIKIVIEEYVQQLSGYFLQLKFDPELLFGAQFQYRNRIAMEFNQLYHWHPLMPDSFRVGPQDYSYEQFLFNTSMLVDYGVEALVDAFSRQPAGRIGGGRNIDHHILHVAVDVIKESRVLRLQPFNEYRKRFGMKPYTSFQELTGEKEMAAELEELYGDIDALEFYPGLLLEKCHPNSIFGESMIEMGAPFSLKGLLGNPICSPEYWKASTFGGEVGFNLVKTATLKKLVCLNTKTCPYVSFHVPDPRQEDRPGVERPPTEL
As to the kind of experiment: Cyclooxygenase COX-1 inhibition assay (Cayman COX inhibitor screening kit, EIA).

The target in the next data set is T4, COX-2 (Homo sapiens, UniProt P35354).
T4 sequence (P35354 18-604): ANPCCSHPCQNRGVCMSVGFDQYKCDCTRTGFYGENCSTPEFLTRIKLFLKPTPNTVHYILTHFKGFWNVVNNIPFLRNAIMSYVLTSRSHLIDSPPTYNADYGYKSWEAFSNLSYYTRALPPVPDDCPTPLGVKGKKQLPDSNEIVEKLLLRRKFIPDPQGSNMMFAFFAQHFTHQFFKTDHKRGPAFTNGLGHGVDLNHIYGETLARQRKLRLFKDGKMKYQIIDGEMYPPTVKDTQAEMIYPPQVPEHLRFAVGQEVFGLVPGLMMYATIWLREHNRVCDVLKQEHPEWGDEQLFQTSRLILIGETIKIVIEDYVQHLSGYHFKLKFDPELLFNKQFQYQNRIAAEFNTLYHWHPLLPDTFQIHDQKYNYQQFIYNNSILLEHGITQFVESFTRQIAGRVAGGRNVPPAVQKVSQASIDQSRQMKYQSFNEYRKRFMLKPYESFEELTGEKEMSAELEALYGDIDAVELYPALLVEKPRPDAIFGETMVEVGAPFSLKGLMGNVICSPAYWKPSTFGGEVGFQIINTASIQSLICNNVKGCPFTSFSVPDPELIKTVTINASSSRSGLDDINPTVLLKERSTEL
As to the kind of experiment: Cyclooxygenase COX-2 inhibition assay (Cayman COX inhibitor screening kit, EIA). To be noted: for Selectivity indexes (SI): SI = IC50 COX-1/COX-2 ratios; for COX-2 inhibition, in words (SAR discussion): qualitative statement.

T2 sequence (P01375 77-233 limits assumed): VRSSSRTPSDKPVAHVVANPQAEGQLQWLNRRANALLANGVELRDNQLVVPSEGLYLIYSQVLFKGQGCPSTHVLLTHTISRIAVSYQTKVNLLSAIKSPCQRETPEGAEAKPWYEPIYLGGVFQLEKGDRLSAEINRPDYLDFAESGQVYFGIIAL
Method for COX-1: (§1) Tested compounds were dissolved in DMSO. […] The COX inhibitor screening assay depends on direct measurement of the amount of PG2α produced in the COX reaction. […] Enzyme catalysis was terminated by addition of 50 µl 1 M HCl and 100 µl of the saturated stannous chloride solution. The PGs are quantified by enzyme immunoassay (EIA) at 410 nm.
(§2) Thus, the newly synthesised compounds were tested for their anti-inflammatory activity against isozymes COX-1 and COX-2, which were determined by the COX-catalysed transformation of AA into PGH2 that was reduced to PGF2α and detected by the EIA[53], as shown in Table 1.
Method for COX-2: as §1, §2

`O=C1NN(c2ccccc2)C(c2ccc(Cl)c(Cl)c2)=CC1=Cc1ccccc1[N+](=O)[O-]` [Compound 5a, 6-(3,4-Dichlorophenyl)-4-(2-nitrobenzylidene)-1-phenyl-1,4-dihydropyridazin-3(2H)-one] returned a melting point of more than 300 °C. Also, the IC50 against 15-LOX turned out to be 2700 ± 950 nM. The compound further showed an IC50 against TNF-α of 4.93 ± 0.06 nM. 12730 ± 120 nM corresponded to half-maximal inhibition at COX-1 (IC50). Moreover, on COX-2, the midpoint of inhibition, the IC50, lay at 60 nM and the “Selectivity indexes (SI)” value is listed as 212.17.
Regarding `O=C1NN(c2ccccc2)C(c2ccc(Cl)c(Cl)c2)=CC1=Cc1cccc([N+](=O)[O-])c1` [Compound 5b, 6-(3,4-Dichlorophenyl)-4-(3-nitrobenzylidene)-1-phenyl-1,4-dihydropyridazin-3(2H)-one], the melting point is more than 300 °C. This compound also came in with an IC50 on 15-LOX of 2430 ± 120 nM. 3.27 ± 0.12 nM corresponded to half-maximal inhibition against TNF-α (IC50). The compound also showed an IC50 against COX-1 of 13000 ± 100 nM. At COX-2, the midpoint of inhibition, the IC50, lay at 40 nM and the “Selectivity indexes (SI)” value is 325.00.
In turn, `CN(C)c1ccc(C=C2C=C(c3ccc(Cl)c(Cl)c3)N(c3ccccc3)NC2=O)cc1` [Compound 5c, 6-(3,4-Dichlorophenyl)-4-(4-dimethylaminobenzylidene)-1-phenyl-1,4-dihydropyridazin-3(2H)-one] registered a melting point of more than 300 °C. The IC50 at 15-LOX was 2970 ± 120 nM. The compound further had an IC50 against TNF-α of 3.57 ± 0.12 nM. The IC50 against COX-1 came out at 11700 ± 120 nM. Also, at COX-2, the IC50 amounted to 90 nM and the “Selectivity indexes (SI)” value is recorded as 130.33.
In turn, `NNC(=O)C(=Cc1ccccc1[N+](=O)[O-])CC(=O)c1ccc(Cl)c(Cl)c1` [Compound 6a, 4-(3,4-Dichlorophenyl)-2-(2-nitrobenzylidene)-4-oxo-butanehydrazide] returned a melting point of 164 to 166 °C. Besides, it took 2830 ± 60 nM to reach half-maximal inhibition at 15-LOX (IC50). Further, half-maximal inhibition on TNF-α (IC50) was put at 5.87 ± 0.12 nM. Besides, the IC50 against COX-1 turned out to be 9670 ± 60 nM. In addition, at COX-2, half-maximal inhibition (IC50) was put at 90 nM; the “Selectivity indexes (SI)” value was 107.44; the “COX-2 inhibition, in words (SAR discussion)” value is “high activity”.
The compound `NNC(=O)C(=Cc1cccc([N+](=O)[O-])c1)CC(=O)c1ccc(Cl)c(Cl)c1` [Compound 6b, 4-(3,4-Dichlorophenyl)-2-(3-nitrobenzylidene)-4-oxo-butanehydrazide] displayed a melting point of 160 to 162 °C. The compound further registered an IC50 at 15-LOX of 2470 ± 60 nM. On TNF-α, this compound had an IC50 of 4.1 ± 0.1 nM. At COX-1, this compound showed an IC50 of 10100 ± 150 nM. Also, on COX-2, the IC50 is 80 nM; the “Selectivity indexes (SI)” value was 125.88; the “COX-2 inhibition, in words (SAR discussion)” value is given as “high activity”.
In the case of `CN(C)c1ccc(C=C(CC(=O)c2ccc(Cl)c(Cl)c2)C(=O)NN)cc1` [Compound 6c, 4-(3,4-Dichlorophenyl)-2-(4-dimethylaminobenzylidene)-4-oxo-butanehydrazide], the melting point lay within 154 to 156 °C. In addition, on 15-LOX, half-maximal inhibition (IC50) was put at 3170 ± 60 nM. Also, the IC50 at TNF-α is 6.17 ± 0.06 nM. On COX-1, this compound showed an IC50 of 8830 ± 60 nM. At COX-2, half-maximal inhibition (IC50) required 100 ± 10 nM and the “Selectivity indexes (SI)” value came out at 88.30.
As to `O=C1NN(C(=O)c2ccccc2)C(c2ccc(Cl)c(Cl)c2)=CC1=Cc1ccccc1[N+](=O)[O-]` [Compound 8a, 2-Benzoyl-5-(2-nitrobenzylidene)-3-(3,4-dichlorophenyl)-1H-pyridazin-6-one], the melting point is 222 to 224 °C. 2330 ± 510 nM corresponded to half-maximal inhibition on 15-LOX (IC50). Moreover, at TNF-α, the IC50 stood at 3.83 ± 1.44 nM. Also, the IC50 at COX-1 was 10800 ± 150 nM. At COX-2, half-maximal inhibition (IC50) required 70 nM and the “Selectivity indexes (SI)” value is recorded as 153.86.
In turn, `O=C1NN(C(=O)c2ccccc2)C(c2ccc(Cl)c(Cl)c2)=CC1=Cc1cccc([N+](=O)[O-])c1` [Compound 8b, 2-Benzoyl-5-(3-nitrobenzylidene)-3-(3,4-dichlorophenyl)-1H-pyridazin-6-one] returned a melting point of 150 to 152 °C. The same compound yielded an IC50 on 15-LOX of 2470 ± 60 nM. At TNF-α, this compound returned an IC50 of 3.47 ± 0.06 nM. For the same compound, the IC50 on COX-1 was 12670 ± 120 nM. At COX-2, the IC50 turned out to be 40 nM and the “Selectivity indexes (SI)” value is 316.75.
Take `CN(C)c1ccc(C=C2C=C(c3ccc(Cl)c(Cl)c3)N(C(=O)c3ccccc3)NC2=O)cc1` [Compound 8c, 2-Benzoyl-5-(4-dimethylaminobenzylidene)-3-(3,4-dichlorophenyl)-1H-pyridazin-6-one]: the melting point was in the range of 229 to 231 °C. The compound also returned an IC50 against 15-LOX of 3170 ± 60 nM. For the same compound, inhibition against TNF-α was half-maximal at 2.9 ± 0.1 nM (IC50). The “TNF-α inhibition, in words (discussion)” value on TNF-α (qualitative statement) is given as “lowest IC50 value”. At COX-1, this compound registered an IC50 of 13070 ± 120 nM. For the same compound, on COX-2, the half-maximal inhibitory concentration (IC50) is 40 nM and the “Selectivity indexes (SI)” value is given as 326.75.
Compound `O=C(CC(=Cc1ccccc1[N+](=O)[O-])c1n[nH]c(=S)o1)c1ccc(Cl)c(Cl)c1` [Compound 9a, 1-(3,4-Dichlorophenyl)-4-(2-nitrophenyl)-3-(2-thioxo-4,5-dihydro-1,3,4-oxadiazol-5-yl)but-3-en-1-one] registered a melting point of 214 to 216 °C. For the same compound, the IC50 against 15-LOX was 2070 ± 150 nM. The half-inhibitory concentration (IC50) against TNF-α worked out at 5.57 ± 0.06 nM. Half-maximal inhibition at COX-1 (IC50) was put at 9430 ± 120 nM. For the same compound, at COX-2, half-maximal inhibition (IC50) was put at 280 ± 10 nM and the “Selectivity indexes (SI)” value is 33.68.
`CN(C)c1ccc(C=C(CC(=O)c2ccc(Cl)c(Cl)c2)c2n[nH]c(=S)o2)cc1` [Compound 9c, 1-(3,4-Dichlorophenyl)-4-(4-dimethylaminophenyl)-3-(2-thioxo-4,5-dihydro-1,3,4-oxadiazol-5-yl)but-3-en-1-one] yielded a melting point of 162 to 164 °C. The compound further registered an IC50 against 15-LOX of 2000 ± 170 nM. On TNF-α, this compound gave an IC50 of 6.27 ± 0.15 nM. On COX-1, this compound displayed an IC50 of 8930 ± 60 nM. Also, at COX-2, half-maximal inhibition (IC50) was put at 220 ± 10 nM and the “Selectivity indexes (SI)” value is on record as 40.59.
